Earlier results, collected in patent US7488791B2, “Mixture of peptides derived from E6 and/or E7 papillomavirus proteins and uses thereof” (priority 2001, dated 2009).
Like-named read-outs stand apart in the source and are kept apart here.

How the values were obtained:
cells from patients [1] = conditions: Kadish et al.; cited from earlier work
cells in the blood = conditions: Tsukui et al., 140 HPV16+ patients; cited from earlier work
cells from patients [2] = conditions: Nakagawa et al., cited from earlier work; for Proliferation of cells from patients, responders/tested, normal: normal individuals
cells from patients [3] = conditions: Luxton et al., cited from earlier work; for Proliferation of cells from patients, responders/tested, normal: normal individuals

In the case of CC[C@H](C)[C@H](NC(=O)[C@@H](NC(=O)[C@@H](NC(=O)[C@H](CCC(N)=O)NC(=O)[C@H](CC(C)C)NC(=O)[C@H](CCC(=O)O)NC(=O)[C@@H](NC(=O)[C@H](CS)NC(=O)[C@H](CC(C)C)NC(=O)[C@H](CCC(N)=O)NC(=O)[C@@H]1CCCN1C(=O)[C@H](CC(C)C)NC(=O)[C@H](CCCCN)NC(=O)[C@@H](N)CCCNC(=N)N)[C@@H](C)O)[C@@H](C)O)[C@@H](C)O)C(=O)N[C@@H](Cc1c[nH]cn1)C(=O)O [E6 17-31, R K L P Q L C T E L Q T T I H], the “Proliferation of cells from patients (CIN or normal), responders/tested” value (cells from patients [1]) is given as 12/23.

In the case of “E6: 1-31: HPV16 E6 peptide, positions 1-31, Kadish et al. (MHQKRTAMFQDPQERPRKLPQLCTELQTTIH; UniProt P03126 1-31, looked up, fragment)”, the “Proliferation of cells from patients (CIN or normal), responders/tested” value (cells from patients [1]) is listed as 17/48.

For “E6: 1-45: HPV16 E6 peptide, positions 1-45, Tsukui et al. (MHQKRTAMFQDPQERPRKLPQLCTELQTTIHDIILECVYCKQQLL; UniProt P03126 1-45, looked up, fragment)”, the “Secretion of IL2 (activation of cells) by patients, responders/tested” value (from here on “Secretion of IL2 … responders/tested”) (cells in the blood) is given as 0/140.

For “E6: 4-29: HPV16 E6 peptide, positions 4-29, Nakagawa et al. (KRTAMFQDPQERPRKLPQLCTELQTT; UniProt P03126 4-29, looked up, fragment)”, the “Proliferation of cells from patients, responders/tested, CIN” value (“Proliferation … responders/tested, CIN” for short) (cells from patients [2]) is given as 3/22 and the “Proliferation of cells from patients, responders/tested, normal” value (from here on “Proliferation … responders/tested, normal”) (cells from patients [2]) is given as 12/65.

In the case of “E6: 22-51: HPV16 E6 peptide, positions 22-51, Kadish et al. (LCTELQTTIHDIILECVYCKQQLLRREVYD; UniProt P03126 22-51, looked up, fragment)”, the “Proliferation of cells from patients (CIN or normal), responders/tested” value (cells from patients [1]) is listed as 17/46.

For “E6: 24-45: HPV16 E6 peptide, positions 24-45, Nakagawa et al. (TELQTTIHDIILECVYCKQQLL; UniProt P03126 24-45, looked up, fragment)”, the “Proliferation … responders/tested, CIN” value (cells from patients [2]) is given as 1/22 and the “Proliferation … responders/tested, normal” value (cells from patients [2]) is given as 15/65.

In the case of “E6: 42-71: HPV16 E6 peptide, positions 42-71, Kadish et al. (QQLLRREVYDFAFRDLCIVYRDGNPYAVCD; UniProt P03126 42-71, looked up, fragment)”, the “Proliferation of cells from patients (CIN or normal), responders/tested” value (cells from patients [1]) is listed as 8/43.

For “E6: 59-112: HPV16 E6 peptide, positions 59-112, Tsukui et al. (IVYRDGNPYAVCDKCLKFYSKISEYRHYCYSLYGTTLEQQYNKPLCDLLIRCIN; UniProt P03126 59-112, looked up, fragment)”, the “Secretion of IL2 … responders/tested” value (cells in the blood) is given as 6/140.

In the case of “E6: 62-91: HPV16 E6 peptide, positions 62-91, Kadish et al. (RDGNPYAVCDKCLKFYSKISEYRHYCYSLY; UniProt P03126 62-91, looked up, fragment)”, the “Proliferation of cells from patients (CIN or normal), responders/tested” value (cells from patients [1]) is given as 0/30.

For “E6: 82-111: HPV16 E6 peptide, positions 82-111, Kadish et al. (EYRHYCYSLYGTTLEQQYNKPLCDLLIRCI; UniProt P03126 82-111, looked up, fragment)”, the “Proliferation of cells from patients (CIN or normal), responders/tested” value (cells from patients [1]) is given as 5/34.

In the case of “E6: 102-131: HPV16 E6 peptide, positions 102-131, Kadish et al. (PLCDLLIRCINCQKPLCPEEKQRHLDKKQR; UniProt P03126 102-131, looked up, fragment)”, the “Proliferation of cells from patients (CIN or normal), responders/tested” value (cells from patients [1]) is given as 14/43.

In the case of “E6: 109-122: HPV16 E6 peptide, positions 109-122, Nakagawa et al. (RCINCQKPLCPEEK; UniProt P03126 109-122, looked up, fragment)”, the “Proliferation … responders/tested, CIN” value (cells from patients [2]) is listed as 1/22 and the “Proliferation … responders/tested, normal” value (cells from patients [2]) is listed as 8/65.

For “E6: 111-158: HPV16 E6 peptide, positions 111-158, Tsukui et al. (INCQKPLCPEEKQRHLDKKQRFHNIRGRWTGRCMSCCRSSRTRRETQL; UniProt P03126 111-158, looked up, fragment)”, the “Secretion of IL2 … responders/tested” value (cells in the blood) is given as 11/140.

For “E6: 117-131: HPV16 E6 peptide, positions 117-131, Kadish et al. (LCPEEKQRHLDKKQR; UniProt P03126 117-131, looked up, fragment)”, the “Proliferation of cells from patients (CIN or normal), responders/tested” value (cells from patients [1]) is listed as 12/23.

For “E6: 122-151: HPV16 E6 peptide, positions 122-151, Kadish et al. (KQRHLDKKQRFHNIRGRWTGRCMSCCRSSR; UniProt P03126 122-151, looked up, fragment)”, the “Proliferation of cells from patients (CIN or normal), responders/tested” value (cells from patients [1]) is listed as 19/48.

For “E6: 137-151: HPV16 E6 peptide, positions 137-151, Kadish et al. (GRWTGRCMSCCRSSR; UniProt P03126 137-151, looked up, fragment)”, the “Proliferation of cells from patients (CIN or normal), responders/tested” value (cells from patients [1]) is given as 9/23.

In the case of “E7: 1-35: HPV16 E7 peptide, positions 1-35, Tsukui et al.”, the “Secretion of IL2 … responders/tested” value (cells in the blood) is given as 3/140.

For “E7: 21-30: HPV16 E7 peptide, positions 21-30, Nakagawa et al. (DLYCYEQLND; UniProt P03129 21-30, looked up, fragment)”, the “Proliferation … responders/tested, CIN” value (cells from patients [2]) is given as 0/22 and the “Proliferation … responders/tested, normal” value (cells from patients [2]) is given as 5/65.

In the case of “E7: 40-54: HPV16 E7 peptide, positions 40-54, Luxton et al. (GPAGQAEPDRAHYNI; UniProt P03129 40-54, looked up, fragment)”, the “Proliferation … responders/tested, CIN” value (cells from patients [3]) is given as 0 CIN and 0 normal and the “Proliferation … responders/tested, normal” value (cells from patients [3]) is given as 0 CIN and 0 normal.

For “E7: 44-57: HPV16 E7 peptide, positions 44-57, Nakagawa et al. (QAEPDRAHYNIVTF; UniProt P03129 44-57, looked up, fragment)”, the “Proliferation … responders/tested, CIN” value (cells from patients [2]) is listed as 3/22 and the “Proliferation … responders/tested, normal” value (cells from patients [2]) is listed as 9/65.

For “E7: 45-64: HPV16 E7 peptide, positions 45-64, Luxton et al. (AEPDRAHYNIVTFCCKCDST; UniProt P03129 45-64, looked up, fragment)”, the “Proliferation … responders/tested, CIN” value (cells from patients [3]) is given as 2/31 and the “Proliferation … responders/tested, normal” value (cells from patients [3]) is given as 1/15.

In the case of “E7: 55-74: HPV16 E7 peptide, positions 55-74, Luxton et al. (VTFCCKCDSTLRLCVQSTHV; UniProt P03129 55-74, looked up, fragment)”, the “Proliferation … responders/tested, CIN” value (cells from patients [3]) is given as 2/31 and the “Proliferation … responders/tested, normal” value (cells from patients [3]) is given as 1/15.

For “E7: 62-79: HPV16 E7 peptide, positions 62-79, Nakagawa et al. (DSTLRLCVQSTHVDIRTL; UniProt P03129 62-79, looked up, fragment)”, the “Proliferation … responders/tested, CIN” value (cells from patients [2]) is listed as 3/22 and the “Proliferation … responders/tested, normal” value (cells from patients [2]) is listed as 10/65.

For “E7: 62-80: HPV16 E7 peptide, positions 62-80, Kadish et al. (DSTLRLCVQSTHVDIRTLE; UniProt P03129 62-80, looked up, fragment)”, the “Proliferation of cells from patients (CIN or normal), responders/tested” value (cells from patients [1]) is listed as 11/35.

In the case of “E7: 70-98: HPV16 E7 peptide, positions 70-98, Luxton et al. (QSTHVDIRTLEDLLMGTLGIVCPICSQKP; UniProt P03129 70-98, looked up, fragment)”, the “Proliferation … responders/tested, CIN” value (cells from patients [3]) is listed as 4/31 and the “Proliferation … responders/tested, normal” value (cells from patients [3]) is listed as 7/15.

For “E7: 72-97: HPV16 E7 peptide, positions 72-97, Kadish et al. (THVDIRTLEDLLMGTLGIVCPICSQK; UniProt P03129 72-97, looked up, fragment)”, the “Proliferation of cells from patients (CIN or normal), responders/tested” value (cells from patients [1]) is given as 19/48.
